# Measured values from paper PMC10897476, “Pyridylpiperazine efflux pump inhibitor boosts in vivo antibiotic efficacy against K. pneumoniae” (EMBO Molecular Medicine, 2023).
# Where “and” joins values, the source holds several entries; their conditions need not be identical. Equal entries are not always repeated. Where two headings read alike, the source gives them in different places. Marks after values point to notes of the source that are not given here.
# Assays:
# Type in all cases: cell-based, Klebsiella pneumoniae
# [1] = test system: K. pneumoniae RamR^mut (K124*stop); experiment: MIC of antibiotics with and without EPI (REMA), RamR mutant; conditions: for Minimum Inhibitory Concentration: K. pneumoniae RamR^mut
# Outline: (§1)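 K. pneumoniae ATCC 43816 carrying single chromosomal acrB or ramR mutations introduced by allelic exchange, diluted to OD600 = 0.001 in CAMHB with EPI at final 100 µM. Incubated 37 °C up to 20 h; viability by resazurin fluorescence (Ex 530/Em 590 nm).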
# [2] = test system: K. pneumoniae ATCC 43816 (WT); experiment: Checkerboard assay levofloxacin x EPI, WT strain; conditions: for checkerboard growth readout: ATCC43816 WT, EPI 0 µM; for MIC: Klebsiella pneumoniae; for Median REMA values (percentage resazurin turnover): median n=3; for Median REMA values (percentage resazurin turnover) / percentage resazurin turnover: listed as Lev; for percentage resazurin turnover: individual replicates
# Description: (§2) MIC experiments were carried out according to the CLSI guidelines (CLSI [2023]). Overnight cultures were diluted to an OD600 = 0.001 in CAMHB followed by addition of efflux pump inhibitors (EPIs) at a final concentration of 100 µM. […] Plates were incubated at 37 °C for up to 20 h. Bacterial viability was evaluated using the resazurin microtitre assay (REMA) and measured by fluorescence using a Tecan Spaert multimode plate reader (Ex: 530 nm Em: 590 nm). MICs were defined as the concentration that prevented 90% of resazurin turnover compared to the non-treated bacteria.
# (§3) Bacterial suspensions, incubation and plate readouts were carried out as described above.
# [3] = test system: K. pneumoniae AcrB^V448E RamR^mut; experiment: Checkerboard assay levofloxacin x EPI, double mutant; conditions: ATCC43816 AcrBV448E ramRmut, EPI 0 µM
# Description: as §2, §3
# [4] = test system: K. pneumoniae RamR^mut (K124*stop); experiment: Checkerboard assay levofloxacin x EPI, RamR mutant; conditions: for checkerboard growth readout: ATCC43816 ramRmut, EPI 0 µM; for MIC: Klebsiella pneumoniae
# Description: as §2, §3
# K. pneumoniae AcrB^V448E [5] = experiment: MIC of antibiotics with and without EPI (REMA), AcrB V448E mutant; conditions: for Minimum Inhibitory Concentration: K. pneumoniae AcrB^V448E
# Outline: as §1
# K. pneumoniae AcrB^V448E [6] = experiment: Checkerboard assay levofloxacin x EPI, AcrB V448E mutant; conditions: for checkerboard growth readout: ATCC43816 AcrBV448E, EPI 0 µM; for percentage resazurin turnover: listed as Lev
# Description: as §2, §3
# [7] = Klebsiella pneumoniae, read-out: Minimum Inhibitory Concentration
# [8] = Lev 0.24 ng/mL, BDM91288 0.00 uM
# [9] = Lev 0.49 ng/mL, BDM91288 0.00 uM
# [10] = Lev 0.98 ng/mL, BDM91288 0.00 uM
# [11] = Lev 1.95 ng/mL, BDM91288 0.00 uM
# [12] = Lev 3.91 ng/mL, BDM91288 0.00 uM
# [13] = Lev 7.81 ng/mL, BDM91288 0.00 uM
# [14] = Lev 15.63 ng/mL, BDM91288 0.00 uM
# [15] = Lev 31.25 ng/mL, BDM91288 0.00 uM
# [16] = Lev 62.50 ng/mL, BDM91288 0.00 uM
# [17] = Lev 500.00 ng/mL, BDM91288 0.00 uM
# [18] = Lev 1000 ng/mL, BDM91288 0.00 uM
structure (smiles),measurement,setting,value
C[C@H]1COc2c(N3CCN(C)CC3)c(F)cc3c(=O)c(C(=O)O)cn1c23 [Levofloxacin],Minimum Inhibitory Concentration,[1]; + 100 µM 1',0.08^# mg/L
same,Minimum Inhibitory Concentration,[1]; + 100 µM 5,0.05^# mg/L
same,Minimum Inhibitory Concentration,[1]; + 100 µM PAβN,0.04^# mg/L
same,MIC,[1]; [7],0.64 µg/mL
same,checkerboard growth readout,[2]; levofloxacin 4 ng/mL,114 and 99
same,checkerboard growth readout,[2]; levofloxacin 8 ng/mL,102 and 104
same,checkerboard growth readout,[2]; levofloxacin 15.625 ng/mL,112 and 95
same,checkerboard growth readout,[2]; levofloxacin 31.25 ng/mL,88 and 69
same,MIC,"[2]; ATCC43816, read-out: levofloxacin MIC (checkerboard)",0.0625 µg/mL
same,MIC,"[2]; ATCC43816, read-out: levofloxacin boosted MIC (checkerboard)",0.016 µg/mL
same,Median REMA values (percentage resazurin turnover),[2]; Lev 0.24 ng/mL + EPI 0.00 uM,82% and 111%
same,Median REMA values (percentage resazurin turnover),[2]; Lev 0.49 ng/mL + EPI 0.00 uM,103% and 87%
same,Median REMA values (percentage resazurin turnover),[2]; Lev 0.98 ng/mL + EPI 0.00 uM,102% and 101%
same,percentage resazurin turnover,[2]; Lev 1.95 ng/mL + EPI 0.00 uM,92% and 97%
same,Median REMA values (percentage resazurin turnover),[2]; Lev 1.95 ng/mL + EPI 0.00 uM,101% and 92%
same,percentage resazurin turnover,[2]; Lev 3.91 ng/mL + EPI 0.00 uM,128% and 114% and 108%
same,Median REMA values (percentage resazurin turnover),[2]; Lev 3.91 ng/mL + EPI 0.00 uM,99% and 114%
same,percentage resazurin turnover,[2]; Lev 7.81 ng/mL + EPI 0.00 uM,102% and 106% and 72%
same,Median REMA values (percentage resazurin turnover),[2]; Lev 7.81 ng/mL + EPI 0.00 uM,104% and 102%
same,percentage resazurin turnover,[2]; Lev 15.63 ng/mL + EPI 0.00 uM,100% and 112% and 143%
same,Median REMA values (percentage resazurin turnover),[2]; Lev 15.63 ng/mL + EPI 0.00 uM,95% and 112%
same,percentage resazurin turnover,[2]; Lev 31.25 ng/mL + EPI 0.00 uM,88% and 76% and 139%
same,Median REMA values (percentage resazurin turnover),[2]; Lev 31.25 ng/mL + EPI 0.00 uM,69% and 88%
same,percentage resazurin turnover,[2]; Lev 62.50 ng/mL + EPI 0.00 uM,-0.208% and 0.0384% and 0.176%
same,Median REMA values (percentage resazurin turnover),[2]; Lev 62.50 ng/mL + EPI 0.00 uM,-0.588% and 0.0384%
same,percentage resazurin turnover,[2]; Lev 500.00 ng/mL + EPI 0.00 uM,-0.171% and 0.0154% and 0.238%
same,Median REMA values (percentage resazurin turnover),[2]; Lev 500.00 ng/mL + EPI 0.00 uM,-0.604% and 0.0154%
same,percentage resazurin turnover,[2]; Lev 1000 ng/mL + EPI 0.00 uM,-0.203% and 0.204% and -0.0468%
same,Median REMA values (percentage resazurin turnover),[2]; Lev 1000 ng/mL + EPI 0.00 uM,-0.268% and -0.0468%
same,checkerboard growth readout,[3]; levofloxacin 4 ng/mL,105 and 97
same,checkerboard growth readout,[3]; levofloxacin 8 ng/mL,113 and 94
same,checkerboard growth readout,[3]; levofloxacin 15.625 ng/mL,114 and 99
same,checkerboard growth readout,[3]; levofloxacin 31.25 ng/mL,121 and 95
same,checkerboard growth readout,[3]; levofloxacin 62.5 ng/mL,141 and 104
same,checkerboard growth readout,[3]; levofloxacin 250 ng/mL,148 and 137
same,checkerboard growth readout,[3]; levofloxacin 500 ng/mL,131 and 124
same,checkerboard growth readout,[4]; levofloxacin 4 ng/mL,106 and 109
same,checkerboard growth readout,[4]; levofloxacin 8 ng/mL,110 and 118
same,checkerboard growth readout,[4]; levofloxacin 15.625 ng/mL,111 and 109
same,checkerboard growth readout,[4]; levofloxacin 62.5 ng/mL,111 and 123
same,checkerboard growth readout,[4]; levofloxacin 250 ng/mL,61 and 91
same,MIC,[4]; read-out: levofloxacin MIC (checkerboard),0.5 µg/mL
same,MIC,[4]; read-out: levofloxacin boosted MIC (checkerboard),0.016 µg/mL
same,Minimum Inhibitory Concentration,K. pneumoniae AcrB^V448E [5]; + 100 µM 1',0.03 mg/L
same,Minimum Inhibitory Concentration,K. pneumoniae AcrB^V448E [5]; + 100 µM 5,0.03 mg/L
same,Minimum Inhibitory Concentration,K. pneumoniae AcrB^V448E [5]; + 100 µM PAβN,0.02^# mg/L
same,MIC,K. pneumoniae AcrB^V448E [5]; [7],0.04 µg/mL
same,checkerboard growth readout,K. pneumoniae AcrB^V448E [6]; levofloxacin 4 ng/mL,107 and 101
same,checkerboard growth readout,K. pneumoniae AcrB^V448E [6]; levofloxacin 8 ng/mL,111 and 91
same,checkerboard growth readout,K. pneumoniae AcrB^V448E [6]; levofloxacin 15.625 ng/mL,117 and 89
same,checkerboard growth readout,K. pneumoniae AcrB^V448E [6]; levofloxacin 31.25 ng/mL,91 and 81
same,Median REMA values,K. pneumoniae AcrB^V448E [6]; [8],88%
same,percentage resazurin turnover,K. pneumoniae AcrB^V448E [6]; [8],93% and 88% and 53%
same,Median REMA values,"K. pneumoniae AcrB^V448E [6]; Lev 0.24 ng/mL, PABN 0.00 uM",81%
same,percentage resazurin turnover,"K. pneumoniae AcrB^V448E [6]; Lev 0.24 ng/mL, PABN 0.00 uM",88% and 81% and 56%
same,Median REMA values,K. pneumoniae AcrB^V448E [6]; [9],105%
same,percentage resazurin turnover,K. pneumoniae AcrB^V448E [6]; [9],102% and 108% and 105%
same,Median REMA values,"K. pneumoniae AcrB^V448E [6]; Lev 0.49 ng/mL, PABN 0.00 uM",70%
same,percentage resazurin turnover,"K. pneumoniae AcrB^V448E [6]; Lev 0.49 ng/mL, PABN 0.00 uM",68% and 101% and 70%
same,Median REMA values,K. pneumoniae AcrB^V448E [6]; [10],98%
same,percentage resazurin turnover,K. pneumoniae AcrB^V448E [6]; [10],98% and 105% and 79%
same,Median REMA values,"K. pneumoniae AcrB^V448E [6]; Lev 0.98 ng/mL, PABN 0.00 uM",106%
same,percentage resazurin turnover,"K. pneumoniae AcrB^V448E [6]; Lev 0.98 ng/mL, PABN 0.00 uM",106% and 107% and 72%
same,Median REMA values,K. pneumoniae AcrB^V448E [6]; [11],108%
same,percentage resazurin turnover,K. pneumoniae AcrB^V448E [6]; [11],108% and 109% and 104%
same,Median REMA values,"K. pneumoniae AcrB^V448E [6]; Lev 1.95 ng/mL, PABN 0.00 uM",104%
same,percentage resazurin turnover,"K. pneumoniae AcrB^V448E [6]; Lev 1.95 ng/mL, PABN 0.00 uM",104% and 118% and 78%
same,Median REMA values,K. pneumoniae AcrB^V448E [6]; [12],107%
same,percentage resazurin turnover,K. pneumoniae AcrB^V448E [6]; [12],107% and 111% and 81%
same,Median REMA values,"K. pneumoniae AcrB^V448E [6]; Lev 3.91 ng/mL, PABN 0.00 uM",101%
same,percentage resazurin turnover,"K. pneumoniae AcrB^V448E [6]; Lev 3.91 ng/mL, PABN 0.00 uM",101% and 111% and 73%
same,Median REMA values,K. pneumoniae AcrB^V448E [6]; [13],111%
same,percentage resazurin turnover,K. pneumoniae AcrB^V448E [6]; [13],111% and 76%
same,Median REMA values,"K. pneumoniae AcrB^V448E [6]; Lev 7.81 ng/mL, PABN 0.00 uM",91%
same,percentage resazurin turnover,"K. pneumoniae AcrB^V448E [6]; Lev 7.81 ng/mL, PABN 0.00 uM",91% and 110% and 79%
same,Median REMA values,K. pneumoniae AcrB^V448E [6]; [14],117%
same,percentage resazurin turnover,K. pneumoniae AcrB^V448E [6]; [14],117% and 105%
same,Median REMA values,"K. pneumoniae AcrB^V448E [6]; Lev 15.63 ng/mL, PABN 0.00 uM",89%
same,percentage resazurin turnover,"K. pneumoniae AcrB^V448E [6]; Lev 15.63 ng/mL, PABN 0.00 uM",119% and 89% and 72%
same,Median REMA values,K. pneumoniae AcrB^V448E [6]; [15],91%
same,percentage resazurin turnover,K. pneumoniae AcrB^V448E [6]; [15],91% and 87% and 102%
same,Median REMA values,"K. pneumoniae AcrB^V448E [6]; Lev 31.25 ng/mL, PABN 0.00 uM",81%
same,percentage resazurin turnover,"K. pneumoniae AcrB^V448E [6]; Lev 31.25 ng/mL, PABN 0.00 uM",81% and 70%
same,Median REMA values,K. pneumoniae AcrB^V448E [6]; [16],-0.206%
same,percentage resazurin turnover,K. pneumoniae AcrB^V448E [6]; [16],-0.206% and -0.287% and -0.155%
same,Median REMA values,"K. pneumoniae AcrB^V448E [6]; Lev 62.50 ng/mL, PABN 0.00 uM",-0.817%
same,percentage resazurin turnover,"K. pneumoniae AcrB^V448E [6]; Lev 62.50 ng/mL, PABN 0.00 uM",-0.685% and -0.817% and -0.819%
same,Median REMA values,K. pneumoniae AcrB^V448E [6]; [17],-0.289%
same,percentage resazurin turnover,K. pneumoniae AcrB^V448E [6]; [17],-0.289% and -0.371% and 0.114%
same,Median REMA values,"K. pneumoniae AcrB^V448E [6]; Lev 500.00 ng/mL, PABN 0.00 uM",-0.75%
same,percentage resazurin turnover,"K. pneumoniae AcrB^V448E [6]; Lev 500.00 ng/mL, PABN 0.00 uM",-0.676% and -1% and -0.75%
same,Median REMA values,K. pneumoniae AcrB^V448E [6]; [18],0.0503%
same,percentage resazurin turnover,K. pneumoniae AcrB^V448E [6]; [18],0.0503% and -0.121% and 0.102%
same,Median REMA values,"K. pneumoniae AcrB^V448E [6]; Lev 1000 ng/mL, PABN 0.00 uM",-0.383%
same,percentage resazurin turnover,"K. pneumoniae AcrB^V448E [6]; Lev 1000 ng/mL, PABN 0.00 uM",-0.346% and -0.646% and -0.383%
